Earlier results as cited in patent US8183203B2, “Methods for treating pulmonary hypertension and compositions comprising vasoactive intestinal peptide” (Avant Garde Therapeutics & Technologies LLC, priority 1999, dated 2012).

What was measured:
[1] = test system: dogs left in ventricular fibrillation; details: four dogs, ventricular fibrillation for seven minutes, 4 μg/kg IV bolus, then defibrillated
[2] = test system: isolated rat hearts
[3] = test system: Na+ channels; details: isolated rabbit ventricular myocytes, acute

N[C@@H](Cc1cc(I)c(Oc2ccc(O)c(I)c2)c(I)c1)C(=O)O [T3, 3,5,3′ triiodothyronine]
dogs successfully resuscitated [1]: Three out of four
time to peak action (onset of inotropic action) [2]: 15 s
maximum dp/dt (contractility) after a bolus injection [2]: rapidly and significantly increased
burst mode gating of Na+ channels [3]: acutely increased

CC(C)NCC(O)c1ccc(O)c(O)c1 (stereo not drawn) [isoproterenol]
time to peak action (onset of inotropic action) [2]: 60 s
maximum dp/dt (contractility) after a bolus injection [2]: also increased
